Laboratory results taken from patent US6911220B1, “Allogeneic and xenogeneic transplantation” (The General Hospital Corporation, priority 1992, dated 2005).

Tested on: pig kidney transplants in Cynomolgus monkeys
Experiment: Pig to monkey kidney xenotransplantation

N=C(N)NCCCCCCC(=O)NC(O)C(=O)NCCCCNCCCN (stereo not shown) [DSG, 15-deoxyspergualin]
suppression of natural antibody function (6 mg/kg/day, i.v., pig to cynomolgus kidney transplants): useful in suppressing natural antibody function
usefulness of combination treatment (cyclosporine 15 mg/kg/day 28 days + 15-deoxyspergualin 6 mg/kg/day two weeks + pig SCF and IL-3 10 μg/kg/day i.v. two weeks, pig grafts and stem cells): useful
day until which the pig kidney functioned (splenectomy + pig liver perfusion, cyclosporine 15 mg/kg/day iv and DSG 6 mg/kg/day iv post-transplant, removed on day 8): 7 days
IgM natural antibodies in serum after liver perfusion (with cyclosporine 15 mg/kg/day iv and DSG 6 mg/kg/day iv): did not appear in the serum thereafter
